Structures are written as SMILES. Structures can show the parent of a compound that is named as a salt. A value given as a limit tells only on which side of the number the result lay.

This is an account of results in US20260297085A1, “1 H-PYRROLO[2,3-B]PYRIDIN-4-YL]-2-OXOPYRROLIDINE-3-CARBONITRILE DERIVATIVES AS TYROSINE KINASE 2 (TYK2) INHIBITORS FOR THE TREATMENT OF INFLAMMATORY DISEASES” (BIOGEN MA INC., priority 2023, published 2026).

For assay [1], the target named is T1, human TYK2 kinase domain (JH1) (Homo sapiens, UniProt P29597).
T1 construct: recombinantly generated catalytic kinase (also known as JH1) domain of human JAK1, JAK2, JAK3 and TYK2
T1 sequence (P29597 897-1176 limits assumed): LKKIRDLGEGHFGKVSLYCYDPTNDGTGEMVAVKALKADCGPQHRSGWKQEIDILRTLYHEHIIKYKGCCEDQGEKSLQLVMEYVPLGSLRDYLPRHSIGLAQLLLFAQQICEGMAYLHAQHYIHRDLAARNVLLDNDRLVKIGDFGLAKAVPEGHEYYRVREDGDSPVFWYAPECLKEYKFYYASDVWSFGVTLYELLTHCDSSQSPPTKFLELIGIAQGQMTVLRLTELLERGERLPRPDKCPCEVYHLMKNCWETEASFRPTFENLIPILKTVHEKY
Description: JH1 biochemical assay for TYK2 (ADP-Glo kinase assay, recombinant JH1 catalytic domain, JAK3-974 peptide, 10 μM ATP). The method in brief:
(§1)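 Reactions contain 50 μM peptide and run 100 minutes, with enzyme at 4, 0.2, 0.3 and 2 nM for JAK1, JAK2, JAK3 and TYK2. Generated ADP is read by luminescence; IC50 derives from normalized dose-response curves.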
In general terms: In ADP-Glo the light output rises with the ADP produced.

The target of assay [2] is T2, human JAK1 kinase domain (JH1) (Homo sapiens, UniProt P23458).
T2 construct: recombinantly generated catalytic kinase (also known as JH1) domain of human JAK1, JAK2, JAK3 and TYK2
In words: JH1 biochemical assay for JAK1 (ADP-Glo kinase assay, recombinant JH1 catalytic domain, JAK3-342 peptide, 35 μM ATP). The method in brief: as §1

In assay [3] the target is T3, human JAK2 kinase domain (JH1) (Homo sapiens, UniProt O60674).
T3 construct: recombinantly generated catalytic kinase (also known as JH1) domain of human JAK1, JAK2, JAK3 and TYK2
In words: JH1 biochemical assay for JAK2 (ADP-Glo kinase assay, recombinant JH1 catalytic domain, JAK3-974 peptide, 15 μM ATP). The method in brief: as §1

Assay [4] addresses T4, human JAK3 kinase domain (JH1) (Homo sapiens, UniProt P52333).
T4 construct: recombinantly generated catalytic kinase (also known as JH1) domain of human JAK1, JAK2, JAK3 and TYK2
In words: JH1 biochemical assay for JAK3 (ADP-Glo kinase assay, recombinant JH1 catalytic domain, JAK3-974 peptide, 4 μM ATP). The method in brief: as §1

T2 sequence (P23458 875-1153 limits assumed): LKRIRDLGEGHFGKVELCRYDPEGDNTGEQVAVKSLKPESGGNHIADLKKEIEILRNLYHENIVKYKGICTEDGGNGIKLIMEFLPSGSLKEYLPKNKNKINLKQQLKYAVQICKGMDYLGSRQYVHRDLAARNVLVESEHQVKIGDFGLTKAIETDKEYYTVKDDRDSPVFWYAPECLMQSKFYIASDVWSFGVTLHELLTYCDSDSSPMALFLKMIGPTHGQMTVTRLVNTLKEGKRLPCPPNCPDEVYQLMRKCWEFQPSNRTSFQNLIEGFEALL
T4 sequence (P52333 822-1111 limits assumed): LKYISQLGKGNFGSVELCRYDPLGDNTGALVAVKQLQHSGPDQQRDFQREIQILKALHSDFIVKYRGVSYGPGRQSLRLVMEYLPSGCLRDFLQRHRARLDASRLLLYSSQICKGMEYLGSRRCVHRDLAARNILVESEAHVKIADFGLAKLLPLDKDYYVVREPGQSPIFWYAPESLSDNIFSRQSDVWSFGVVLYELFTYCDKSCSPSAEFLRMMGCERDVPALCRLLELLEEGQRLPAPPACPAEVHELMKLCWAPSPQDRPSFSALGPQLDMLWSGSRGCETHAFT
T3 sequence (O60674 849-1124 limits assumed): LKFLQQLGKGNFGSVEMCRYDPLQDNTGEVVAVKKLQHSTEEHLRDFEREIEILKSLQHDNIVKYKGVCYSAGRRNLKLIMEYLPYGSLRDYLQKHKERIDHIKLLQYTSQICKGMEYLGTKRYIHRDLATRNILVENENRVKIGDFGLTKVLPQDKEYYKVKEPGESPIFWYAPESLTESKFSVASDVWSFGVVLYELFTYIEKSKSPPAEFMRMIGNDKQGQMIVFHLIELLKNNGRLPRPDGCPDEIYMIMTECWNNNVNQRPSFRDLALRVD

What is called IC50 is the concentration needed to halve the response being measured. As to `CCc1ccncc1-c1cc2c(N3C[C@@H](C)[C@@](C#N)(C4CC4)C3=O)ccnn2c1` [Example 175, (3R,4S)-3-cyclopropyl-1-(6-(4-ethylpyridin-3-yl)pyrrolo[1,2-b]pyridazin-4-yl)-4-methyl-2-oxopyrrolidine-3-carbonitrile trifluoroacetate], the IC50 in assay [1] (JH1 kinase domain, ADP-Glo) is above 0.1 µM; in assay [2] (JH1 kinase domain, ADP-Glo) it was 5 to 10 µM; in assay [3] (JH1 kinase domain, ADP-Glo) it was above 10 µM; in assay [4] (JH1 kinase domain, ADP-Glo), above 10 µM.

Consider `COc1cncc(-c2cc3c(N4C[C@@H](C)[C@@](C#N)(C5CC5)C4=O)ccnn3c2)c1` [Example 82, (3R,4S)-3-cyclopropyl-1-(6-(5-methoxypyridin-3-yl)pyrrolo[1,2-b]pyridazin-4-yl)-4-methyl-2-oxopyrrolidine-3-carbonitrile], for which the IC50 in assay [1] (JH1 kinase domain, ADP-Glo) is 0.02 to 0.05 µM; in assay [2] (JH1 kinase domain, ADP-Glo), above 10 µM; in assay [3] (JH1 kinase domain, ADP-Glo), above 10 µM; in assay [4] (JH1 kinase domain, ADP-Glo), above 10 µM.

For the compound `C[C@@H]1CN(c2ccnc3cc(-c4cnn(C)c4)nn23)C(=O)[C@]1(C#N)C1CC1` [Example 273, (3R,4S)-3-cyclopropyl-4-methyl-1-(2-(1-methyl-1H-pyrazol-4-yl)pyrazolo[1,5-a]pyrimidin-7-yl)-2-oxopyrrolidine-3-carbonitrile], the half-inhibitory concentration (IC50) in assay [1] (TYK2 JH1, ADP-Glo) is above 0.1 µM; in assay [2] (JAK1 JH1, ADP-Glo) it was 5 to 10 µM; in assay [3] (JAK2 JH1, ADP-Glo), above 10 µM; in assay [4] (JAK3 JH1, ADP-Glo) it was 5 to 10 µM.

Regarding `Cc1cc(-c2cc3c(N4C[C@@H](C)[C@@](C#N)(C5CC5)C4=O)ccnn3c2)ncc1F` [Example 142, (3R,4S)-3-cyclopropyl-1-(6-(5-fluoro-4-methylpyridin-2-yl)pyrrolo[1,2-b]pyridazin-4-yl)-4-methyl-2-oxopyrrolidine-3-carbonitrile trifluoroacetate], the IC50 in assay [1] (JH1 kinase domain, ADP-Glo) was 0.02 to 0.05 µM; in assay [2] (JH1 kinase domain, ADP-Glo) it was 1 to 5 µM; in assay [3] (JH1 kinase domain, ADP-Glo), 1 to 5 µM; in assay [4] (JH1 kinase domain, ADP-Glo), 1 to 5 µM.

`C[C@@H]1CN(c2ccnn3cc(-c4nccc(C(F)(F)F)n4)cc23)C(=O)[C@]1(C#N)C1CC1` [Example 120, (3R,4S)-3-cyclopropyl-4-methyl-2-oxo-1-(6-(4-(trifluoromethyl)pyrimidin-2-yl)pyrrolo[1,2-b]pyridazin-4-yl)pyrrolidine-3-carbonitrile trifluoroacetate]: the concentration for half-maximal inhibition (IC50) in assay [1] (JH1 kinase domain, ADP-Glo) was above 0.1 µM; in assay [2] (JH1 kinase domain, ADP-Glo) it was 5 to 10 µM; in assay [3] (JH1 kinase domain, ADP-Glo), above 10 µM; in assay [4] (JH1 kinase domain, ADP-Glo) it was 1 to 5 µM.

With `COc1ncc(-c2cn3nccc3c(N3C[C@@H](C)[C@@](C#N)(C4CC4)C3=O)n2)cc1C#N` [Example 262, 5-(4-((3R,4S)-3-cyano-3-cyclopropyl-4-methyl-2-oxopyrrolidin-1-yl)pyrazolo[1,5-a]pyrazin-6-yl)-2-methoxynicotinonitrile trifluoroacetate], the IC50 in assay [1] (TYK2 JH1, ADP-Glo) is 0.02 to 0.05 µM; in assay [2] (JAK1 JH1, ADP-Glo), above 10 µM; in assay [3] (JAK2 JH1, ADP-Glo) it was above 10 µM; in assay [4] (JAK3 JH1, ADP-Glo), above 10 µM.

On to `Cn1cc(-c2cc3c(N4CC[C@](C#N)(C5CCC5)C4=O)ccnn3c2)cn1` (single isomer, unassigned) [Example 47], for which the half-inhibitory concentration (IC50) in assay [1] (JH1 kinase domain, ADP-Glo) is above 0.1 µM; in assay [2] (JH1 kinase domain, ADP-Glo), above 10 µM; in assay [3] (JH1 kinase domain, ADP-Glo), 5 to 10 µM; in assay [4] (JH1 kinase domain, ADP-Glo) it was above 10 µM.

For `C[C@@H]1CN(c2ccnn3cc(-c4cncc(C#N)n4)cc23)C(=O)[C@]1(C#N)C1CC1` [Example 133, 6-(4-((3R,4S)-3-cyano-3-cyclopropyl-4-methyl-2-oxopyrrolidin-1-yl)pyrrolo[1,2-b]pyridazin-6-yl)pyrazine-2-carbonitrile trifluoroacetate], the IC50 lay in the range of 0.02 to 0.05 µM in assay [1] (JH1 kinase domain, ADP-Glo); 1 to 5 µM in assay [2] (JH1 kinase domain, ADP-Glo); 1 to 5 µM in assay [3] (JH1 kinase domain, ADP-Glo); 1 to 5 µM in assay [4] (JH1 kinase domain, ADP-Glo).

Take `C[C@@H]1CN(c2ccnn3cc(-c4cc(C(F)(F)F)ncn4)cc23)C(=O)[C@]1(C#N)C1CC1` [Example 121, (3R,4S)-3-cyclopropyl-4-methyl-2-oxo-1-(6-(6-(trifluoromethyl)pyrimidin-4-yl)pyrrolo[1,2-b]pyridazin-4-yl)pyrrolidine-3-carbonitrile trifluoroacetate]: the concentration for half-maximal inhibition (IC50) is above 0.1 µM in assay [1] (JH1 kinase domain, ADP-Glo); 1 to 5 µM in assay [2] (JH1 kinase domain, ADP-Glo); 5 to 10 µM in assay [3] (JH1 kinase domain, ADP-Glo); 1 to 5 µM in assay [4] (JH1 kinase domain, ADP-Glo).

For `C[C@@H]1CN(c2ccnn3cc(-c4cnn(C)c4)cc23)C(=O)[C@]1(C#N)C1COC1` [Example 20, (3S,4S)-4-methyl-1-(6-(1-methyl-1H-pyrazol-4-yl)pyrrolo[1,2-b]pyridazin-4-yl)-3-(oxetan-3-yl)-2-oxopyrrolidine-3-carbonitrile], the IC50 was above 0.1 µM in assay [1] (JH1 kinase domain, ADP-Glo); above 10 µM in assay [2] (JH1 kinase domain, ADP-Glo); 5 to 10 µM in assay [3] (JH1 kinase domain, ADP-Glo); above 10 µM in assay [4] (JH1 kinase domain, ADP-Glo).

Turning to `CC[C@H]1C[C@@](C#N)(C2CC2)C(=O)N1c1ccnn2cc(C3=NC(C)N=C3)cc12` (stereo partly drawn) [Example 19, (3S,5S)-3-cyclopropyl-5-ethyl-1-(6-(2-methyl-2H-imidazol-4-yl)pyrrolo[1,2-b]pyridazin-4-yl)-2-oxopyrrolidine-3-carbonitrile], the IC50 in assay [1] (JH1 kinase domain, ADP-Glo) is above 0.1 µM; in assay [2] (JH1 kinase domain, ADP-Glo), above 10 µM; in assay [3] (JH1 kinase domain, ADP-Glo), above 10 µM; in assay [4] (JH1 kinase domain, ADP-Glo), above 10 µM.

On to `Cn1cc(-c2cc3c(N4CC[C@](C)(C#N)C4=O)ccnn3c2)cn1` (single isomer, unassigned) [Example 39], for which the 50% inhibitory concentration (IC50) in assay [1] (JH1 kinase domain, ADP-Glo) is above 0.1 µM; in assay [2] (JH1 kinase domain, ADP-Glo), above 10 µM; in assay [3] (JH1 kinase domain, ADP-Glo), above 10 µM; in assay [4] (JH1 kinase domain, ADP-Glo), above 10 µM.

Turning to `Cc1cc(-c2cn3nccc3c(N3C[C@@H](C)[C@@](C#N)(C4CC4)C3=O)n2)ccn1` [Example 241, (3R,4S)-3-cyclopropyl-4-methyl-1-(6-(2-methylpyridin-4-yl)pyrazolo[1,5-a]pyrazin-4-yl)-2-oxopyrrolidine-3-carbonitrile trifluoroacetate], the IC50 lay within 0.05 to 0.1 µM in assay [1] (TYK2 JH1, ADP-Glo); 0.1 to 1 µM in assay [2] (JAK1 JH1, ADP-Glo); 1 to 5 µM in assay [3] (JAK2 JH1, ADP-Glo); 1 to 5 µM in assay [4] (JAK3 JH1, ADP-Glo).

With `C[C@@H]1CN(c2cc(-c3cnn(C)c3)cc3ncnn23)C(=O)[C@]1(C#N)C1CC1` [Example 285, (3R,4S)-3-cyclopropyl-4-methyl-1-(7-(1-methyl-1H-pyrazol-4-yl)-[1,2,4]triazolo[1,5-a]pyridin-5-yl)-2-oxopyrrolidine-3-carbonitrile], the IC50 in assay [1] (TYK2 JH1, ADP-Glo) is above 0.1 µM; in assay [2] (JAK1 JH1, ADP-Glo), above 10 µM; in assay [3] (JAK2 JH1, ADP-Glo), above 10 µM; in assay [4] (JAK3 JH1, ADP-Glo), above 10 µM.

As for `Cc1ccc(-c2cc3c(N4C[C@@H](C)[C@@](C#N)(C5CC5)C4=O)ccnn3c2)nn1` [Example 137, (3R,4S)-3-cyclopropyl-4-methyl-1-(6-(6-methylpyridazin-3-yl)pyrrolo[1,2-b]pyridazin-4-yl)-2-oxopyrrolidine-3-carbonitrile trifluoroacetate], the IC50 in assay [1] (JH1 kinase domain, ADP-Glo) lay in the range of 0.02 to 0.05 µM; in assay [2] (JH1 kinase domain, ADP-Glo), 1 to 5 µM; in assay [3] (JH1 kinase domain, ADP-Glo), 0.1 to 1 µM; in assay [4] (JH1 kinase domain, ADP-Glo), 0.1 to 1 µM.

As for `C[C@@H]1CN(c2ccnn3cc(-c4cc(CO)ccn4)cc23)C(=O)[C@]1(C#N)C1CC1` [Example 148, (3R,4S)-3-cyclopropyl-1-(6-(4-(hydroxymethyl)pyridin-2-yl)pyrrolo[1,2-b]pyridazin-4-yl)-4-methyl-2-oxopyrrolidine-3-carbonitrile trifluoroacetate], the IC50 in assay [1] (JH1 kinase domain, ADP-Glo) lay within 0.02 to 0.05 µM; in assay [2] (JH1 kinase domain, ADP-Glo), 0.1 to 1 µM; in assay [3] (JH1 kinase domain, ADP-Glo), 0.1 to 1 µM; in assay [4] (JH1 kinase domain, ADP-Glo), 0.1 to 1 µM.
